In patent publication US8569242B2, “Method of treating degenerative disorders of the nervous system” (The Regents of the University of California, priority 2005, dated 2013):
“Also recorded” adds a separate entry of the source.

What was measured:
[1] = test system: PLP139-151 EAE in SJL/J mice; assay: Remitting-relapsing PLP139-151 EAE, intranasal γ^377-395 peptide after first paralytic episode; format: in vivo, mouse
Description: (§1) Induction of EAE. EAE was induced in 6 week old female SJL/J or C57BL/6 mice by subcutaneous immunization with 150 μg PLP139-151 (HSLGKWLGHPDKF) (SEQ ID NO: 5). American Peptide Company and Azco Pharmchem, San Jose, Calif.) or 50 μg MOG35-55 ([…]) (SEQ ID NO: 6), Sigma-Aldrich, St. Louis, Mo.) in complete Freund's adjuvant (Sigma-Aldrich, St. Louis, Mo.) supplemented with […] heat inactivated mycobacterium tuberculosis H37Ra (Difco Laboratories, Detroit, Mich.). Mice were injected intravenously with 200 ng pertussis toxin (Sigma-Aldrich, St. Louis, Mo.) on days 0 and 2 of the immunization. Mice were scored daily. 0: no symptoms, 1: loss of tail tone, 2: ataxia, 3: hindlimb paralysis, 4: hindlimb and forelimb paralysis, 5: moribund Data are represented as the mean clinical score and are mean±SEM. Statistical calculations were made by using Student's t test.
Intranasal γ^377-395 peptide administration. Fibrinogen γ^377-395 peptide (YSMKETTMKIIPFNRLSIG) (SEQ ID NO: 2), Azco Pharmchem, San Jose, Calif.) was resuspended in 0.9% NaCl at a concentration of 3 mg/mL. Peptides were aliquoted as single doses and stored at […]. Mice were administered 5 μL of peptide or 0.9% NaCI, as a control, in each nare daily using a P10 micropipettor (Gilson, Middleton, Wis.) beginning after the peak of the first paralytic episode.
(§2) Histopathology. Histopathologic analysis and quantification of inflammation and demyelination in mouse tissue was performed on cryostat or paraffin sections as described (57). Sections were stained with luxol fast blue and nuclear red. Spinal cord sections were fixed with 2% PFA for 10 minutes at 4° C. and immunostained with a sheep anti-fibrinogen antibody (1:200, US Biological, Swampscott, Mass.), rat anti-CD11b (1:5, Chemicon), von Willebrand Factor (1:1000, Dakocytomation, Glostrup, Denmark), iNOS (polyclonal Chemicon, Temecula, Calif., 1:750), Mac-3 (rat-anti-mouse, Pharmingen, San Diego, Calif., 1:200), CNPase (monoclonal, Sternberger monoclonals, Lutherville, Md., 1:2000). For human MS, paraffin embedded material was obtained from the Archives of the Center for Brain Research, Medical University of Vienna. Double immunofluorescence was performed with antibodies against CD68 and fibrin. Images were collected using an Axioplan 2 Zeiss microscope with an Axiocam HRc camera or were processed for confocal microscopy using Olympus and Zeiss confocal microscopes.
(§3) Rotarod behavior test. The rotarod assay was performed on a TSE accelerating Rotarod apparatus (TSE Technical and Scientific Equipment GmbH) as described (58). Rotarod assays were conducted with a 300 second maximum time limit and means were collected for at least three trials. Statistical calculations were made by using Students t test.

[2] = test system: Mac-1 overexpressing cells; conditions: reference (37); cited from earlier work
blood coagulation = assay: Hematological analyses: plasma clotting time and prothrombin time after intranasal peptide; format: in vivo, mouse; conditions: 30 μg and 90 μg intranasally daily for seven days
Description: Hematological Analyses. Citrated plasma was prepared from mice administered intranasally 30 μg or 90 μg of γ^377-395 peptide or saline control daily for seven days. Plasma clotting times were measured by combining 10 μl of citrated plasma with 10 μl of 2 U/ml bovine thrombin (Enzyme Research Laboratories, South Bend, Ind., USA) and 40 mM. CaCl2 in a weigh boatfloating in a 37° C. water bath. Time to clot was determined by mixing with a toothpick. Plasma thrombin times were established as described previously (15). Fibrin polymerization was evaluated by standard turbidity assays using plasma. Briefly, citrate plasma (diluted tenfold in 20 mM HEPES, pH 7.4, containing 0.15 M NaCl and 5 mM-amino caproic acid) was combined with bovine thrombin (final concentration 0.2 U/ml; Enzyme Research Laboratories, South Bend, Ind., USA), and Ca^2+ (10 mM), and OD350 measurements were taken every 30 seconds.

[3] = test system: PLP139-151 EAE in SJL/J mice; assay: PLP139-151 EAE after vaccination with γ^377-395 peptide; format: in vivo, mouse
Description: as §1
Fibrinogen γ^377-395 peptide vaccination. Vaccination was performed as described (56) with the following modifications. Five week old female SJL/J mice were immunized with 200 μg fibrinogen γ^377-395 peptide (YSMKETTMKIIPFNRLSIG) (SEQ ID NO: 2), Azco Pharmchem, San Jose, Calif.) emulsified with an equal volume of incomplete freund's adjuvant (Sigma-Aldrich, St. Louis, Mo.). Mice were immunized four times in alternating rear flanks over the course of two weeks. Control animals were immunized with incomplete Freund's adjuvant.
as §2, §3

[4] = 30 μg i.n. daily, day 30 after immunization

## tyr-ser-met-lys-lys-thr-thr-met-lys-ile-ile-pro-phe-asn-arg-leu-thr-ile-gly (YSMKKTTMKIIPFNRLTIG) (listed as Homo sapiens) [γ^377-395 peptide]
[1]; 30 μg i.n. daily, after the first relapse on day 29
  increase of motor functions vs control mice: 1.4 fold
[1]; [4]
  reduction in Mac-3 (microglia/macrophage marker) immunostaining: 2 fold
  reduction in iNOS immunostaining: 4.2 fold
[1]; 30 μg intranasally daily after first paralytic episode, n=14 vs control n=13
  relapse of paralysis (clinical score): did not show a relapse
[1]; peptide-treated vs control
  T cell infiltration: no major differences
[2]
  concentration shown to inhibit adhesion of Mac-1 overexpressing cells to immobilized fibrinogen: 200 µM
Blood coagulation
  in vivo blood clotting time: does not affect; also recorded: Neither dose affected
  prothrombin time: does not affect; also recorded: Neither dose affected
[3]; 8/15, all control mice 15/15, 200 μg peptide in IFA four times before EAE induction
  vaccinated mice that developed EAE: 53%
[3]; vaccinated mice
  rotarod: increase in motor strength and coordination vs control mice: 76%
[3]; vaccinated mice, control 2.3±1
  histopathology index, brain: 1.5±2
[3]; vaccinated mice, control 12±5.2
  histopathology index, spinal cord: 6.5±5.9
[3]; vaccinated mice, control group 2.5, scale 0-5
  average clinical score: 1.1
